target: human APJ receptor (Homo sapiens (Human), UniProt P35414); test: [35S]GTPγS binding assay on membranes from CHO cells stably expressing human APJ receptor; assay type: biochemical; settings: Activity hAPJ SPA EC50 IP, [35S]GTPγS SPA
Experimental: [^35S]GTPγS Binding The human APJ receptor was cloned by polymerase chain reaction and the gene encoding the receptor was subcloned in pFLAG-CMV™-3 expression vector (Sigma, Saint Louis, Mo. USA) in-house at Amgen. A GTPγS binding assay was performed on membranes prepared from CHO cells stably expressing human APJ receptor. The optimum experimental conditions for the concentrations of GDP, MgCl2, and NaCl in the assay buffer were initially determined. […] Incubation was at RT for 90 min and the microplate was read using a ViewLux™ ultra HTS Microplate Imager (PerkinElmer, Inc.). All the results presented are means of several independent experiments and analyzed by non-linear regression methods using the commercially available program Prism (GraphPad, San Diego, Calif.) providing the EC50 values detailed in Table 25.

Chain of human APJ receptor (P35414 whole entry): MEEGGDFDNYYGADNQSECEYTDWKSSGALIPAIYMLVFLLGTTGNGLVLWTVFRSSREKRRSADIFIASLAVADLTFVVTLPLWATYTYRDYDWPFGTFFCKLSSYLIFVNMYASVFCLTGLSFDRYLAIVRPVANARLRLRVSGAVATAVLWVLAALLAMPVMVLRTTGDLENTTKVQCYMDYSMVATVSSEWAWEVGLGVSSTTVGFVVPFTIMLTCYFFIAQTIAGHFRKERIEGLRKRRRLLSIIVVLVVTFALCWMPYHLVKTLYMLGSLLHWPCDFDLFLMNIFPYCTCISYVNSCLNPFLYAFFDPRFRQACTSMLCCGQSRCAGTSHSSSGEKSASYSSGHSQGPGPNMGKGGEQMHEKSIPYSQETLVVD

Work on `COc1cccc(OC)c1-n1c(NS(=O)(=O)[C@@H](C)[C@H](OC)c2ncc(C)cn2)nnc1C1CC1` [Example 16.0, (1R,2S)—N-(5-Cyclopropyl-4-(2,6-dimethoxyphenyl)-4H-1,2,4-triazol-3-yl)-1-methoxy-1-(5-methyl-2-pyrimidinyl)-2-propanesulfonamide] yielded an EC50 of 22 nM.

same assay, conditions: [35S]GTPγS SPA, read-out: Activity hAPJ SPA EC50 IP

Point of comparison: `COc1cccc(OC)c1-n1c(NS(=O)(=O)[C@@H](C)[C@H](OC)c2ncc(C)cn2)nnc1C1CCC1` [Example 141.0], EC50 33 nM. Against it:
- COc1cccc(OC)c1-n1c(NS(=O)(=O)[C@@H](C)[C@H](C)c2ncc(Cl)cn2)nnc1C1(c2ccccn2)CC1 [Example 125.0] — 12-fold higher, 400 nM
- COc1ncnc(OC)c1-n1c(NS(=O)(=O)[C@@H](C)[C@H](OC)c2ncc(Cl)cn2)nnc1C1CC2(CC2)C1 [Example 183.0, (1R,2S)-1-(5-chloro-2-pyrimidinyl)-N-(4-(4,6-dimethoxy-5-pyrimidinyl)-5-(spiro[2.3]hexan-5-yl)-4H-1,2,4-triazol-3-yl)-1-methoxy-2-propanesulfonamide] — 24-fold lower, 1.4 nM
- COc1ncnc(OC)c1-n1c(NS(=O)(=O)[C@@H](C)[C@H](C)c2ncc(Cl)cn2)nnc1C1CCC1 [Example 85.0, (2S,3R)-3-(5-chloro-2-pyrimidinyl)-N-(5-cyclobutyl-4-(4,6-dimethoxy-5-pyrimidinyl)-4H-1,2,4-triazol-3-yl)-2-butanesulfonamide] — 19-fold lower, 1.7 nM
- COc1cccc(OC)c1-n1c(NS(=O)(=O)[C@@H](C)[C@H](OC)c2ncc(Cl)cn2)nnc1[C@H]1C[C@@H](C#N)C1 (single isomer, unassigned) [Example 121.0, (1R,2S)-1-(5-chloro-2-pyrimidinyl)-N-(5-(cis-3-cyanocyclobutyl)-4-(2,6-dimethoxyphenyl)-4H-1,2,4-triazol-3-yl)-1-methoxy-2-propanesulfonamide or (1R,2S)-1-(5-chloro-2-pyrimidinyl)-N-(5-(trans-3-cyanocyclobutyl)-4-(2,6-dimethoxyphenyl)-4H-1,2,4-triazol-3-yl)-1-methoxy-2-propanesulfonamide] — 6.1-fold lower, 5.4 nM
- (1R,2S)-1-(5-chloropyrimidin-2-yl)-N-(5-((R)-2,2-dimethylcyclopropyl)-4-(tetrahydro-2H-pyran-4-yl)-4H-1,2,4-triazol-3-yl)-1-methoxypropane-2-sulfonamide or (1R,2S)-1-(5-chloropyrimidin-2-yl)-N-(5-((S)-2,2-dimethylcyclopropyl)-4-(tetrahydro-2H-pyran-4-yl)-4H-1,2,4-triazol-3-yl)-1-methoxypropane-2-sulfonamide [Example 20.0] — 25-fold higher, 840 nM
- COc1ncnc(OC)c1-n1c(NS(=O)(=O)[C@@H](C)[C@H](OC)c2ncc(Cl)cn2)nnc1[C@H]1CC[C@@H](C(F)(F)F)CC1 (single isomer, unassigned) [Example 173.0, (1R,2S)-1-(5-chloropyrimidin-2-yl)-N-(4-(4,6-dimethoxypyrimidin-5-yl)-5-((1s,4R)-4-(trifluoromethyl)cyclohexyl)-4H-1,2,4-triazol-3-yl)-1-methoxypropane-2-sulfonamide or (1R,2S)-1-(5-chloropyrimidin-2-yl)-N-(4-(4,6-dimethoxypyrimidin-5-yl)-5-((1r,4S)-4-(trifluoromethyl)cyclohexyl)-4H-1,2,4-triazol-3-yl)-1-methoxypropane-2-sulfonamide] — 2.5-fold lower, 13 nM
- COc1cccc(OC)c1-n1c(NS(=O)(=O)[C@@H](C)[C@H](OC)c2ncc(Cl)cn2)nnc1[C@H]1C[C@@H](C#N)C1 (single isomer, unassigned) [Example 122.0, (1R,2S)-1-(5-chloro-2-pyrimidinyl)-N-(5-(cis-3-cyanocyclobutyl)-4-(2,6-dimethoxyphenyl)-4H-1,2,4-triazol-3-yl)-1-methoxy-2-propanesulfonamide or (1R,2S)-1-(5-chloro-2-pyrimidinyl)-N-(5-(trans-3-cyanocyclobutyl)-4-(2,6-dimethoxyphenyl)-4H-1,2,4-triazol-3-yl)-1-methoxy-2-propanesulfonamide] — within 1.5-fold, 28 nM
- COc1ncnc(OC)c1-n1c(NS(=O)(=O)[C@@H](C)[C@H](OC)c2ncc(Cl)cn2)nnc1[C@H]1CC[C@@H](C(F)F)CC1 (single isomer, unassigned) [Example 144.0, (1R,2S)-1-(5-chloro-2-pyrimidinyl)-N-(5-(cis-4-(difluoromethyl)cyclohexyl)-4-(4,6-dimethoxy-5-pyrimidinyl)-4H-1,2,4-triazol-3-yl)-1-methoxy-2-propanesulfonamide or (1R,2S)-1-(5-chloro-2-pyrimidinyl)-N-(5-(trans-4-(difluoromethyl)cyclohexyl)-4-(4,6-dimethoxy-5-pyrimidinyl)-4H-1,2,4-triazol-3-yl)-1-methoxy-2-propanesulfonamide] — 19-fold higher, 620 nM
- (1R,2S)-1-(5-chloropyrimidin-2-yl)-N-(4-(4,6-dimethoxypyrimidin-5-yl)-5-((R)-spiro[2.2]pentan-1-yl)-4H-1,2,4-triazol-3-yl)-1-methoxypropane-2-sulfonamide or (1R,2S)-1-(5-chloropyrimidin-2-yl)-N-(4-(4,6-dimethoxypyrimidin-5-yl)-5-((S)-spiro[2.2]pentan-1-yl)-4H-1,2,4-triazol-3-yl)-1-methoxypropane-2-sulfonamide [Example 106.0] — 1.7-fold lower, 19 nM
- COc1ncnc(OC)c1-n1c(NS(=O)(=O)[C@@H](C)[C@H](OC)c2ncc(Cl)cn2)nnc1[C@@H]1CC[C@@H]1F (single isomer, unassigned) [Example 179.0, (1R,2S)-1-(5-chloropyrimidin-2-yl)-N-(4-(4,6-dimethoxypyrimidin-5-yl)-5-((1S,2S)-2-fluorocyclobutyl)-4H-1,2,4-triazol-3-yl)-1-methoxypropane-2-sulfonamide or (1R,2S)-1-(5-chloropyrimidin-2-yl)-N-(4-(4,6-dimethoxypyrimidin-5-yl)-5-((1R,2R)-2-fluorocyclobutyl)-4H-1,2,4-triazol-3-yl)-1-methoxypropane-2-sulfonamide] — within 1.5-fold, 46 nM
- COc1ncnc(OC)c1-n1c(NS(=O)(=O)[C@@H](C)[C@H](C)c2ncc(C)cn2)nnc1C1CCC1 [Example 4.0, (2S,3R)-N-(5-cyclobutyl-4-(4,6-dimethoxy-5-pyrimidinyl)-4H-1,2,4-triazol-3-yl)-3-(5-methyl-2-pyrimidinyl)-2-butanesulfonamide] — 1.6-fold lower, 21 nM
- COc1ncnc(OC)c1-n1c(NS(=O)(=O)[C@@H](C)[C@H](OC)c2ncc(Cl)cn2)nnc1[C@H]1CC[C@@H](C(F)F)CC1 (single isomer, unassigned) [Example 145.0, (1R,2S)-1-(5-chloro-2-pyrimidinyl)-N-(5-(cis-4-(difluoromethyl)cyclohexyl)-4-(4,6-dimethoxy-5-pyrimidinyl)-4H-1,2,4-triazol-3-yl)-1-methoxy-2-propanesulfonamide or (1R,2S)-1-(5-chloro-2-pyrimidinyl)-N-(5-(trans-4-(difluoromethyl)cyclohexyl)-4-(4,6-dimethoxy-5-pyrimidinyl)-4H-1,2,4-triazol-3-yl)-1-methoxy-2-propanesulfonamide] — 6.9-fold lower, 4.8 nM

Reference: US11020395B2, “Cycloalkyl substituted triazole compounds as agonists of the APJ receptor” (AMGEN INC., priority 2016, dated 2021)
